Earlier results, collected in US20100190757A1, “COMBINATION PREPARATION FOR ORAL CONTREACEPTION AND ORAL THERAPY OF DYSFUNCTIONAL UTERINE BLEEDING CONTAINING ESTRADIOL VALERATE AND DIENOGEST AND METHOD OF USING SAME” (priority 2005, published 2010).

Test system: dysfunctional uterine bleeding
Conditions: for duration of the bleeding period: 6 anovulatory women (14 days, 12th to 25th day of cycle) and ten ovulatory women (20 days, 5th to 25th day), three times daily, both groups; for reliable contraception: same regimen, anovulatory and ovulatory women

Row | SMILES | duration of the bleeding period | reliable contraception
1 | C#C[C@]1(O)CC[C@H]2[C@@H]3CCC4=CC(=O)CC[C@@H]4[C@H]3CC[C@@]21C [norethisterone] | reduced | not attained
2 | CC(=O)O[C@]1(C(C)=O)CC[C@H]2[C@@H]3C[C@H](C)C4=CC(=O)CC[C@]4(C)[C@H]3CC[C@@]21C [medroxyprogesterone acetate] | reduced | not attained
